Data as given in US20250171430A1, “PYRAZOLYL COMPOUNDS AS KV7 CHANNEL ACTIVATORS” (Biohaven Therapeutics Ltd., priority 2022, published 2025).

Molecular target: T1, Kv7.2/7.3 (Homo sapiens, UniProt O43525+O43526)
T1 construct: Kv7.2 tetracycline-induced, Kv7.3 constitutive
Experiment: Kv7.2/7.3 Activation Assay (Thallium Flux Assay)
Format: cell-based
Details: hKV7.2/7.3 cell line; test compound at single concentration of 10 μM; fluorescence at 90 sec normalized to positive control (retigabine, 30 μM)
Outline: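 Human Kv7.2/7.3 cells with Kv7.2 induced overnight by 10 ng/mL tetracycline were loaded with FluxOR II Green for 1 h at 37 °C. Compounds were tested at 10 μM in 0.1% DMSO/extracellular solution, pH 7.4. Thallium/potassium stimulus was added after a 15 s baseline, and 90 s fluorescence (ex 475/em 530 nm) was normalized to 30 μM retigabine.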

Question: Which “Kv7.2/7.3 Activity” value does the source give for `Cn1nc(NC(=O)NC2CC3(C2)CC(F)(F)C3)c(C2CCC2)c1-c1ccc(F)cc1` [Compound 244, 1-(4-cyclobutyl-5-(4-fluorophenyl)-1-methyl-1H-pyrazol-3-yl)-3-(6,6-difluorospiro[3.3]heptan-2-yl)urea] here?
Answer: − (“−” No Activity < 0.15)

Question: Which “Kv7.2/7.3 Activity” value does the source give for `Cn1nc(NC(=O)NC(C)(C)C)c(C2CCC2)c1-c1ccc(F)cc1` [Compound 245, 1-(tert-butyl)-3-(4-cyclobutyl-5-(4-fluorophenyl)-1-methyl-1H-pyrazol-3-yl)urea] here?
Answer: + (“+” Moderate Activity 0.15-0.7)

Question: With `COCCNC(=O)Nc1nn(C)c(-c2ccc(F)cc2)c1C1CCC1` [Compound 246, 1-(4-cyclobutyl-5-(4-fluorophenyl)-1-methyl-1H-pyrazol-3-yl)-3-(2-methoxyethyl)urea] as the molecule, how does the “Kv7.2/7.3 Activity” value read?
Answer: − (“−” No Activity < 0.15)

Question: How did the “Kv7.2/7.3 Activity” value turn out when `Cn1nc(NC(=O)C2CC(F)(F)C2)c(C2CCC2)c1-c1ccc(C(C)(C)O)s1` [Compound 247, N-(4-cyclobutyl-5-(5-(2-hydroxypropan-2-yl)thiophen-2-yl)-1-methyl-1H-pyrazol-3-yl)-3,3-difluorocyclobutane-1-carboxamide] was run?
Answer: − (“−” No Activity < 0.15)

Question: Which “Kv7.2/7.3 Activity” value does the source give for `Cn1nc(NC(=O)C2CSC2)c(C2CCC2)c1-c1ccc(Cl)s1` [Compound 248, N-(5-(5-chlorothiophen-2-yl)-4-cyclobutyl-1-methyl-1H-pyrazol-3-yl)thietane-3-carboxamide] here?
Answer: ++ (“++” High Activity ≥ 0.7)

Question: For `Cn1nc(NC(=O)C2CC3(C2)CC(F)(F)C3)c(C2CCC2)c1-c1ccc(Cl)s1` [Compound 249, N-(5-(5-chlorothiophen-2-yl)-4-cyclobutyl-1-methyl-1H-pyrazol-3-yl)-6,6-difluorospiro[3.3]heptane-2-carboxamide], which “Kv7.2/7.3 Activity” value is on record?
Answer: ++ (“++” High Activity ≥ 0.7)

Question: Which “Kv7.2/7.3 Activity” value does the source give for `Cn1nc(NC(=O)CC2CC(F)(F)C2)c(C2CCC2)c1-c1ccc(Cl)c(F)c1` [Compound 250, N-(5-(4-chloro-3-fluorophenyl)-4-cyclobutyl-1-methyl-1H-pyrazol-3-yl)-2-(3,3-difluorocyclobutyl)acetamide] here?
Answer: ++ (“++” High Activity ≥ 0.7)

Question: For `Cn1nc(NC(=O)NCC(C)(C)C)c(C2CCC2)c1-c1ccc(F)cc1` [Compound 251, 1-(4-cyclobutyl-5-(4-fluorophenyl)-1-methyl-1H-pyrazol-3-yl)-3-neopentylurea], which “Kv7.2/7.3 Activity” value is on record?
Answer: + (“+” Moderate Activity 0.15-0.7)

Question: `Cn1nc(NC(=O)NC2(C)COC2)c(C2CCC2)c1-c1ccc(F)cc1` [Compound 252, 1-(4-cyclobutyl-5-(4-fluorophenyl)-1-methyl-1H-pyrazol-3-yl)-3-(3-methyloxetan-3-yl)urea] was tested. Which “Kv7.2/7.3 Activity” value did it give?
Answer: + (“+” Moderate Activity 0.15-0.7)

Question: With `Cn1nc(NC(=O)[C@@H]2C[C@@H]2F)c(C2CCC2)c1-c1ccc(F)cc1` [Compound 253, (1S,2S)-N-(4-cyclobutyl-5-(4-fluorophenyl)-1-methyl-1H-pyrazol-3-yl)-2-fluorocyclopropane-1-carboxamide] as the molecule, how does the “Kv7.2/7.3 Activity” value read?
Answer: − (“−” No Activity < 0.15)

Question: For `Cn1nc(NC(=O)C[C@@H]2CC(F)(F)C2(F)F)c(C2CCC2)c1-c1ccc(F)cn1` [Compound 254, (R)-N-(4-cyclobutyl-5-(5-fluoropyridin-2-yl)-1-methyl-1H-pyrazol-3-yl)-2-(2,2,3,3-tetrafluorocyclobutyl)acetamide], which “Kv7.2/7.3 Activity” value is on record?
Answer: ++ (“++” High Activity ≥ 0.7)

Question: For `Cn1nc(NC(=O)C2CC(F)(F)C2)c(C2CCC2)c1-c1cc(F)cc(F)c1` [Compound 255, N-(4-cyclobutyl-5-(3,5-difluorophenyl)-1-methyl-1H-pyrazol-3-yl)-3,3-difluorocyclobutane-1-carboxamide], which “Kv7.2/7.3 Activity” value is on record?
Answer: ++ (“++” High Activity ≥ 0.7)

Question: `Cn1nc(NC(=O)C[C@@H]2CC(F)(F)C2(F)F)c(C2CCC2)c1-c1cc(F)cc(F)c1` [Compound 256, (R)-N-(4-cyclobutyl-5-(3,5-difluorophenyl)-1-methyl-1H-pyrazol-3-yl)-2-(2,2,3,3-tetrafluorocyclobutyl)acetamide] was tested. Which “Kv7.2/7.3 Activity” value did it give?
Answer: ++ (“++” High Activity ≥ 0.7)

Question: How did the “Kv7.2/7.3 Activity” value turn out when `Cn1nc(NC(=O)C2CSC2)c(C2CCC2)c1-c1cc(F)cc(F)c1` [Compound 257, N-(4-cyclobutyl-5-(3,5-difluorophenyl)-1-methyl-1H-pyrazol-3-yl)thietane-3-carboxamide] was run?
Answer: ++ (“++” High Activity ≥ 0.7)

Question: With `Cn1nc(NC(=O)CC2CC(F)(F)C2)c(C2CCC2)c1-c1cc(F)cc(F)c1` [Compound 258, N-(4-cyclobutyl-5-(3,5-difluorophenyl)-1-methyl-1H-pyrazol-3-yl)-2-(3,3-difluorocyclobutyl)acetamide] as the molecule, how does the “Kv7.2/7.3 Activity” value read?
Answer: ++ (“++” High Activity ≥ 0.7)

Question: How did the “Kv7.2/7.3 Activity” value turn out when `Cn1nc(NC(=O)CC2(C(F)F)CC2)c(C2CCC2)c1-c1cc(F)cc(F)c1` [Compound 259, N-(4-cyclobutyl-5-(3,5-difluorophenyl)-1-methyl-1H-pyrazol-3-yl)-2-(1-(difluoromethyl)cyclopropyl)acetamide] was run?
Answer: ++ (“++” High Activity ≥ 0.7)

Question: For `Cn1nc(NC(=O)OC2CC(F)(F)C2)c(C2CCC2)c1-c1ccc(Cl)c(F)c1` [Compound 260, 3,3-difluorocyclobutyl (5-(4-chloro-3-fluorophenyl)-4-cyclobutyl-1-methyl-1H-pyrazol-3-yl)carbamate], which “Kv7.2/7.3 Activity” value is on record?
Answer: ++ (“++” High Activity ≥ 0.7)

Question: How did the “Kv7.2/7.3 Activity” value turn out when `Cn1nc(NC(=O)C2CC(F)(F)C2)c(C2CCC2)c1-c1cc(F)c(F)c(F)c1` [Compound 261, N-(4-cyclobutyl-1-methyl-5-(3,4,5-trifluorophenyl)-1H-pyrazol-3-yl)-3,3-difluorocyclobutane-1-carboxamide] was run?
Answer: ++ (“++” High Activity ≥ 0.7)

Question: How did the “Kv7.2/7.3 Activity” value turn out when `Cn1nc(NC(=O)C[C@@H]2CC(F)(F)C2(F)F)c(C2CCC2)c1-c1cc(F)c(F)c(F)c1` [Compound 262, (R)-N-(4-cyclobutyl-1-methyl-5-(3,4,5-trifluorophenyl)-1H-pyrazol-3-yl)-2-(2,2,3,3-tetrafluorocyclobutyl)acetamide] was run?
Answer: ++ (“++” High Activity ≥ 0.7)

Question: `Cn1nc(NC(=O)C2CSC2)c(C2CCC2)c1-c1cc(F)c(F)c(F)c1` [Compound 263, N-(4-cyclobutyl-1-methyl-5-(3,4,5-trifluorophenyl)-1H-pyrazol-3-yl)thietane-3-carboxamide] was tested. Which “Kv7.2/7.3 Activity” value did it give?
Answer: ++ (“++” High Activity ≥ 0.7)

Question: Which “Kv7.2/7.3 Activity” value does the source give for `Cn1nc(NC(=O)CC2CC(F)(F)C2)c(C2CCC2)c1-c1cc(F)c(F)c(F)c1` [Compound 264, N-(4-cyclobutyl-1-methyl-5-(3,4,5-trifluorophenyl)-1H-pyrazol-3-yl)-2-(3,3-difluorocyclobutyl)acetamide] here?
Answer: ++ (“++” High Activity ≥ 0.7)

Question: How did the “Kv7.2/7.3 Activity” value turn out when `Cn1nc(NC(=O)CC2(C(F)F)CC2)c(C2CCC2)c1-c1cc(F)c(F)c(F)c1` [Compound 265, N-(4-cyclobutyl-1-methyl-5-(3,4,5-trifluorophenyl)-1H-pyrazol-3-yl)-2-(1-(difluoromethyl)cyclopropyl)acetamide] was run?
Answer: ++ (“++” High Activity ≥ 0.7)

Question: With `Cn1nc(NC(=O)C[C@H]2CC(F)(F)C2(F)F)c(C2CCC2)c1-c1cc(F)cc(F)c1` [Compound 266, (S)-N-(4-cyclobutyl-5-(3,5-difluorophenyl)-1-methyl-1H-pyrazol-3-yl)-2-(2,2,3,3-tetrafluorocyclobutyl)acetamide] as the molecule, how does the “Kv7.2/7.3 Activity” value read?
Answer: ++ (“++” High Activity ≥ 0.7)
